In US9498429B2, “Use of a vegetal extract for the prevention and treatment of hair loss” (GIULIANI S.P.A., priority 2013, dated 2016):

Tested on: murine fibroblasts BALB3T3
Experiment: MTT with induced oxidative stress-BALB3T3
Format: cell-based
Settings: 25 μM; oxidative stress induced with H2O2
Procedure: (§1) Non-treated cells in DMEM medium (Dulbecco's Modified Eagle's Medium, ATCC, Manassas, Va., USA) added to 2.5% fetal bovine serum (FCS), 1% non-essential amino acids (NEAA), a 1% penicillin and streptomycin mixture (Pen-Strep Mix), and maintained in 25 cm^2 (96 well) culture plates at 37° C. and under 5% CO2.
as §1, with “Cells treated for 2 hrs with 1 mM hydrogen peroxide” for “Non-treated cells”, “CO2 (in the dark). […]” for “CO2.”
Studies conducted in 2005 by Rajapakse and colleagues (2005) have highlighted the possibility of employing a widely used and versatile method such that of the MTT essay for studying the in vitro anti-oxidant activity of active compounds. […] The possible protecting effects may be determined by the assessment of the post-oxidative stress cell viability of cells pre-treated/pre-exposed to the active compounds to be tested, in comparison to cells subjected to the same oxidative stress. […]
The data were expressed as the percentage of cell viability as compared to the non-stressed control cells (ctr), according to the following formula: cell viability/ctr=(Abs sample/Abs ctr)*100 […]

Cc1c(C)c2c(c(C)c1O)CC[C@@](C)(CCC[C@H](C)CCC[C@H](C)CCCC(C)C)O2 [α-tocopherol] showed a Scavenger activity of 43.10.
